Experimental data as given in US20220170028A1, “NOVEL INTERLEUKIN-2 VARIANTS AND BIFUNCTIONAL FUSION MOLECULES THEREOF” (Cugene Inc, priority 2019, published 2022).

Tests used:
[1] = test system: CD4+ Tconv cells, CD8 T cells and NK cells; assay: Effector T cell and NK cell proliferation and expansion in mice after a single subcutaneous injection (Example 9); type: in vivo, mouse; conditions: 0.3 mg/kg single s.c., C57/BL6 mice
Protocol: IL-2 variant Fc fusion proteins were administered to mice and their ability to preferentially proliferate and expand regulatory T cells (CD4+CD25+FoxP3+ T cells) over effector T cells and NK cells were determined in vivo.
Female C57/BL6 mice (7-week old) were received from Charles River Laboratory and acclimated in house for at least 7 days before the study. Vehicle (PBS), 0.3 mg/kg of each test compounds, or IL-2 benchmark compounds were subcutaneously administered to mice on day 0. Peripheral blood samples were collected into heparin-treated tubes on days 3, 5 and 7 post-treatment. Each group contained 6 mice and baseline blood was collected 2 days prior to the treatment (day −2). After red blood cell lysis, total viable mononuclear blood cells were counted by trypan blue dead cell exclusion method and proceeded to intracellular staining for immune cell phenotype and Ki67 proliferation markers using flow cytometric analysis. Cells were stained separately with two panels of antibodies as listed: 1) anti-mouse Foxp3-FITC, Ki67-PE, anti-mouse CD25-APC and anti-mouse CD4-Percpcy5.5 (1:50 dilution) for CD4+T-regulatory cells (Treg); 2) anti-mouse CD3-FITC, Ki67-PE, anti-mouse CD335-APC and anti-mouse CD8-Percpcy5.5 (1:50 dilution) for CD8+T and NK cells.

[2] = Transient expression level of IL-2 Fc fusion constructs in HEK-293F cells; conditions: Isoleucine-125 constructs
Protocol: The constructs were produced by co-transfecting HEK293-F cells growing in suspension with the mammalian expression vectors using polyethylenimine (PEI, 25,000 MW linear, Polysciences). If there were two or more expression vectors, the vectors were transfected in a 1:1 ratio. For transfection, HEK293 cells were cultivated in serum free FreeStyle™ 293 Expression Medium (ThermoFisher). For production in 1000 ml shaking flasks (working volume 330 mL), HEK293 cells were seeded at a density of 0.8×10^6 cells/ml 24 hours before transfection. A total of 330 μg of DNA expression vectors were mixed with 16.7 ml Opti-mem Medium (ThermoFisher). After addition of 0.33 mg PEI diluted in 16.7 ml Opti-mem Medium, the mixture was vortexed for 15 sec and subsequently incubated for 10 min at room temperature. The DNA/PEI solution was then added to the cells and incubated at 37° C. in an incubator with 8% CO2. Sodium butyrate (Millipore Sigma) was added to the cells at day 4 at a final concentration of […] to help sustain protein expression. After 6 days cultivation, supernatant was collected for purification by centrifugation for 20 min at 2200 rpm. The solution was sterile filtered (0.22 μm filter, Corning). The secreted protein was purified from cell culture supernatants using Protein A affinity chromatography.
S125I substitution was thus introduced into a number of IL-2 variant Fc fusion molecules. The constructs harboring Ile-125 substitution in IL-2 were expressed using the same vector and in the same culturing conditions as their Ser-125 counterparts and purified using MabSelectSure. The expression level in mg/L and purity assessed by SEC chromatography in aggregation % of exemplary molecules are summarized in Table 6. The two molecules in the same row of Table 6 share the same other amino acid substitution(s) and differ only at residue 125 with either serine or isoleucine. As an example, the SEC chromatogram and SDS-PAGE pictures of P-0447 (SEQ ID NO: 173) and its Ile-125 counterpart P-0511 (SEQ ID NO: 213) were further illustrated in FIGS. 1D and 1E.

Treg cells = assay: Treg pharmacodynamics in mice after repeated administration Q3D (Example 11); type: in vivo, mouse; conditions: 0.3 mg/kg s.c.
Protocol: Female Balb/C mice (7-week old) were acclimated in house for 5-7 days before the study. Vehicle (PBS), 0.3 mg/kg of P-0511, P-0512, P-0531, or Benchmark-1 compound were subcutaneously administered to mice (n=5/group) on days 0, 3, and 6. On days 3 and 9, three days after the first injection and multiple (3) injections, respectively, peripheral blood was collected. Based on earlier in vivo experiments, Treg cell activation, proliferation, and expansion were expected to peak on day 3, and thus three days post injection was selected for data collection and analysis. Changes in blood lymphocyte activation, proliferation, and expansion were measured by flow cytometry. P-0531 is the S125I equivalent of the wild type IL-2 fusion protein. The Benchmark-1 contains V91K mutation.

NK cells = assay: NK cell proliferation, CFSE dilution, human PBMC; type: cell-based; conditions: 5 or 7 days incubation
Protocol: (§1) Further, P-0511 and P-0512 were tested for their ability to stimulate NK and CD8+ T cells proliferation in comparison with the wild type and benchmark molecules. Intracellular fluorescent label carboxyfluorescein diacetate succinimidyl ester (CFSE) method was utilized. Briefly, human PBMC (1×10^5 cells/well) were labeled with CFSE, plated onto 96-well plates, and incubated with increasing concentrations of different IL-2 compounds. Cells were then harvested after 5 or 7 days of incubation and stained with either anti-CD56-APC antibody for NK cells or anti-CD8-APC antibody for CD8+ T cells; and analyzed by flow cytometry. Data are expressed as a percent of divided cells and illustrated in FIG. 10A for CD8+ T cell proliferation and FIG. 10B for NK cell proliferation.

CD8+ T cells = assay: CD8+ T cell proliferation, CFSE dilution, human PBMC; type: cell-based; conditions: 5 or 7 days incubation
Protocol: as §1

Q: With “P-0511: IL-2 L19H/S125I/Q126E Fc fusion, SEQ ID NO: 213” as the substance, how does the “Ki67 stimulation on CD8 T cells and NK cells in vivo (in words)” value [1] read?
A: mild Ki67 stimulation

Q: What about the “expansion of CD4+ Tconv cells, CD8 T cells or NK cells in vivo” value [1] of the same substance?
A: No significant expansion

Q: And the “Expression” value [2]?
A: 26.6 mg/L

Q: What about the “% Treg over total CD4 T cells or over total lymphocytes” value (Treg cells; after three consecutive Q3D treatments) of the same substance?
A: sustained at significantly high levels

Q: What about the “Treg cell counts, fold changes relative to PBS and Treg/Tconv ratio” value (Treg cells; repeated dosing Q3D) of the same substance?
A: superior capabilities to sustain Treg pool and maintain Treg selectivity

Q: What about the “potency in stimulating NK cell proliferation (in words)” value (NK cells) of the same substance?
A: on par with Benchmark-3

Q: And the “potency in stimulating CD8+ T cell proliferation (in words)” value (CD8+ T cells)?
A: on par with Benchmark-3
